# Measurements published in PubChem BioAssay AID1552 (Sanford-Burnham Center for Chemical Genomics, 2009).
# Activity calls are given as the source filed them. The rule behind the calls is not given here.
# Molecular target: Ubiquitin-conjugating enzyme E2 N (Homo sapiens) (UniProt P61088)
# Assay: NMR detection of UBE2N ligand binding – biophysical, purified protein (AID 1552)
# Settings: NMR binding to purified UBE2N
# Ubiquitin-conjugating enzyme E2 N (Homo sapiens), sequence (P61088 whole entry, looked up): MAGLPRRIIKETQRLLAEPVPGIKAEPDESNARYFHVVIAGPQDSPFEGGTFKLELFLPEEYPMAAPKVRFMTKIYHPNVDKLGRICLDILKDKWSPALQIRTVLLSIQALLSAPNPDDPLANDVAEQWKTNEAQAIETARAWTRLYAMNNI
row,Compound,Kd
1,O=C(c1cccnc1Cl)N1CCOCC1,> 4 mM (inactive)
2,CCc1nnsc1C(=O)Nc1nccs1,> 4 mM (inactive)
3,NS(=O)(=O)c1ccc(N=Cc2ccc[nH]2)cc1,> 4 mM (inactive)
4,COc1cc(OC)c2c(=O)c(-c3ccccc3)coc2c1,> 4 mM (inactive)
5,CC(O)C(=O)N/N=C/c1cccs1 (stereo not drawn),> 4 mM (inactive)
6,COC(=O)CC1SC(=O)NC1=O (stereo not drawn),> 4 mM (inactive)
7,CC(=O)O[C@H]1C[C@@]2(C)[C@@H](C[C@@H](O)C3[C@]2(C)CC[C@H]2[C@H](C)[C@H](O)CC[C@]32C)/C1=C(/CCC=C(C)C)C(=O)O (stereo partly drawn),> 4 mM (inactive)
8,CCn1c(-c2c[nH]c3ccccc23)n[nH]c1=S,> 4 mM (inactive)
9,CC(=O)c1cccc(NC(=O)N2CCc3ccccc3C2)c1,> 4 mM (inactive)
10,O=C(O)Cc1csc(-c2ccccc2)n1,> 4 mM (inactive)
11,Cc1cc(C)cc(OC(=O)N2CCOCC2)c1,> 4 mM (inactive)
12,Fc1cccc(F)c1CN1CCN(c2ncccn2)CC1,> 4 mM (inactive)
13,c1ccc2nc3c(nc2c1)CCc1nonc1-3,> 4 mM (inactive)
14,Cc1cc(NC(=O)NCCCSc2nncn2C)no1,> 4 mM (inactive)
15,NC(=O)CSc1nc2ccccc2o1,> 4 mM (inactive)
16,COc1ccc2c(=O)c(CC(=O)O)coc2c1,> 4 mM (inactive)
17,CCNC(CC(=O)Nc1ccc(F)cc1)C(=O)O (stereo not drawn),> 4 mM (inactive)
18,O=C(O)C1COc2ccccc2O1 (stereo not drawn),> 4 mM (inactive)
19,O=C(O)c1cn(-c2ccccc2)nc1-c1cccnc1,> 4 mM (inactive)
20,CC1(C)C2CC(=O)[C@]3(C)C(CC[C@@]4(C)[C@H](c5ccoc5)OC(=O)[C@H]5O[C@]543)[C@@]2(C)C(=O)C[C@H]1O (stereo partly drawn),> 4 mM (inactive)
21,Cc1cc(=O)[nH]c2ccccc12,> 4 mM (inactive)
22,CC(=O)Nc1sccc1C(N)=O,> 4 mM (inactive)
23,O=C1CC(=O)N(c2ccccc2)C(=O)N1,> 4 mM (inactive)
24,O=c1[nH]c2sc3c(c2c2nncn12)CCCC3,> 4 mM (inactive)

row,Compound,Kd
1,O=C(O)c1ccc(N2CCCCC2)cc1,> 4 mM (inactive)
2,CCC(C)C(=O)c1c(O)c(C)c2oc3c(C)c(O)c(C(=O)C(C)CC)c(O)c3c2c1O (stereo not drawn),> 4 mM (inactive)
3,O=C(CNC(=O)c1cccs1)NC1=NCCS1,> 4 mM (inactive)
4,CC(=O)NC1=NN(c2ccccc2)C(=O)C1,> 4 mM (inactive)
5,Cc1nc2nc(Cc3ccccc3)nn2c(C)c1Cl,> 4 mM (inactive)
6,O=C1CCCC2C3CC(CN12)[C@@H]1CCCCN1C3 (stereo partly drawn),> 4 mM (inactive)
7,CC(=O)Oc1ccc(N2C(=O)C3C4C=CC(O4)C3C2=O)cc1 (stereo not drawn),> 4 mM (inactive)
8,Cc1cc(C(=O)Nc2nnc(C(F)(F)F)s2)no1,> 4 mM (inactive)
9,Cc1onc(-c2ccc(F)cc2)c1C(=O)O,> 4 mM (inactive)
10,CC1(C)Cc2nc(N3CCOCC3)c(C#N)cc2CO1,> 4 mM (inactive)
11,CCN1C(=O)c2cccc3c(S(N)(=O)=O)ccc1c23,> 4 mM (inactive)
12,COc1ccc(N=C2NC(=O)CS2)cc1,> 4 mM (inactive)
13,CCN1CCC(NC2CCC(O)CC2)CC1 (stereo not drawn),> 4 mM (inactive)
14,CCOC(=O)CC1Sc2ccccc2NC1=S (stereo not drawn),> 4 mM (inactive)
15,S=c1nc(Cc2ccccc2)[nH][nH]1,> 4 mM (inactive)
16,COc1ccc(O)c(-c2cn[nH]c2-c2cccs2)c1,> 4 mM (inactive)
17,O=C(/C=C(\O)c1ccccc1)c1ccccc1O,> 4 mM (inactive)
18,Cn1c(=O)[nH]c(=O)c2c1ncn2CCN1CCCCC1,> 4 mM (inactive)
19,CCOC(=O)c1ccc(Oc2ccc(C)nn2)cc1,> 4 mM (inactive)
20,O=C(c1ccncc1)N1CCN(C(=O)c2ccco2)CC1,> 4 mM (inactive)
21,CC(=O)N1N=C(N)SC1c1cccnc1 (stereo not drawn),> 4 mM (inactive)
22,COCC(=O)OCn1nnc2ccccc2c1=O,> 4 mM (inactive)
23,COC(=O)[C@H]1[C@H]2C[C@H]3c4[nH]c5ccccc5c4CCN3C[C@H]2CC[C@@H]1O,> 4 mM (inactive)
24,COc1cc(N)ccc1NC(=O)c1cccs1,> 4 mM (inactive)

row,Compound,Kd
1,CC1=NN2C(=N)/C(=C\c3cccs3)C(=O)N=C2S1,> 4 mM (inactive)
2,NC1=NC(=O)/C(=C\c2cccnc2)S1,> 4 mM (inactive)
3,O=C(Nc1nnc(-c2ccccc2Cl)o1)c1ccco1,> 4 mM (inactive)
4,O=C1C2CC=CCC2C(=O)N1c1cccc(O)c1 (stereo not drawn),> 4 mM (inactive)
5,O=S(=O)(Nc1cccc2cn[nH]c12)c1ccc(F)cc1,> 4 mM (inactive)
6,Nc1ncnc(Nc2ccccc2C(F)(F)F)n1,> 4 mM (inactive)
7,Nc1nc(O)c(C2=c3cc(Cl)ccc3=NC2=O)s1,> 4 mM (inactive)
8,COC(=O)NCc1cc2cc(Cl)ccc2[nH]1,> 4 mM (inactive)
9,CC1CCN(C(=O)c2ccc(NS(C)(=O)=O)cc2)CC1,> 4 mM (inactive)
10,Oc1cc(O)c2c(c1)O[C@H](c1ccc(O)c(O)c1)[C@H](O)C2,> 4 mM (inactive)
11,Cc1ccc(C(=O)n2cnnc2N)cc1C,> 4 mM (inactive)
12,COc1cc(/C=C/C(=O)/C=C(O)/C=C/c2ccc(O)c(OC)c2)ccc1O,> 4 mM (inactive)
13,CC(=O)O[C@@H]1CC[C@@]2(C)C(CC[C@]3(C)C2CC=C2C4CC(C)(C)CC[C@]4(C(=O)O)CC[C@]23C)C1(C)C (stereo partly drawn),> 4 mM (inactive)
14,CC(=O)N1CCN(c2ccc(O)cc2)CC1,> 4 mM (inactive)
15,Cc1cc(C(=O)NC(C)c2ccncc2)cs1 (stereo not drawn),> 4 mM (inactive)
16,CCOC(=O)c1cnc2sccn2c1=O,> 4 mM (inactive)
17,Cc1cc(=O)n2[nH]c(N)nc2n1,> 4 mM (inactive)
18,NC(=O)c1cc(N)ccc1N1CCCCC1,> 4 mM (inactive)
19,O=C(O)CCN1CCOCC1,> 4 mM (inactive)
20,CC(=O)c1cc(C)ccc1O,> 4 mM (inactive)
21,CN1C2CCC1CC(OC(=O)C(CO)c1ccccc1)C2 (stereo not drawn),> 4 mM (inactive)
22,c1ccc(-c2noc(-c3ccc4c(c3)OCO4)n2)nc1,> 4 mM (inactive)
23,C/C(=C\CO)CC[C@H](C)CCC[C@H](C)CCCC(C)C,> 4 mM (inactive)
24,COc1ccc(N2CC(=O)NC2=O)cc1,> 4 mM (inactive)

row,Compound,Kd
1,CCCCCCCCCCCC1=C(O)C(=O)C=C(O)C1=O,> 4 mM (inactive)
2,O=C(O)C1CNc2ccccc2O1 (stereo not drawn),> 4 mM (inactive)
3,Cc1nc(-c2ccccc2)sc1CO,> 4 mM (inactive)
4,Cc1sc2nc(SCC(=O)N(C)C)[nH]c(=O)c2c1C,> 4 mM (inactive)
5,O=C(O)c1cnc2sc3ccccc3n2c1=O,> 4 mM (inactive)
6,Cn1cnnc1SCC(=O)Nc1ccccc1,> 4 mM (inactive)
7,CCn1cnc2scc(-c3ccccc3)c2c1=O,> 4 mM (inactive)
8,CN(C)C(=O)CSc1nc2ccccc2c(=O)[nH]1,> 4 mM (inactive)
9,NCCc1ccc(S(N)(=O)=O)cc1,> 4 mM (inactive)
10,Fc1ccc(N2CCNCC2)cc1,> 4 mM (inactive)
11,O=C(O)c1ccc(CN2CCOCC2)cc1,> 4 mM (inactive)
12,O=C(O)C1CC(=O)N(Cc2cccs2)C1 (stereo not drawn),> 4 mM (inactive)
13,O=c1cc(-c2ccccc2)oc2cc(O)c(O)c(O)c12,> 4 mM (inactive)
14,Cc1nnsc1C(=O)N(C)c1ccccc1,> 4 mM (inactive)
15,Nc1c(Nc2ccccc2)c2ccccc2oc1=O,> 4 mM (inactive)
16,OCCNC(=S)Nc1ccc(F)cc1,> 4 mM (inactive)
17,O=C1CC(=O)N(c2cccc(Cl)c2)N1,> 4 mM (inactive)
18,Cc1c(C(=O)NCc2ccccn2)oc2ccccc12,> 4 mM (inactive)
19,COC(=O)c1ccccc1NC(=O)c1cc[n+]([O-])cc1,> 4 mM (inactive)
20,CC(=O)Oc1c2c(c3c(c1CC=C(C)C)O[C@]14C(=C[C@@H]5CC1C(C)(C)OC4(C/C=C(\C)C(=O)O)C5=O)C3=O)OC(C)(CCC=C(C)C)C=C2 (stereo partly drawn),> 4 mM (inactive)
21,C=C(C)[C@@H]1CC[C@]2(CO)CC[C@]3(C)[C@H](CCC4[C@@]5(C)CC[C@H](O)C(C)(C)C5CC[C@]43C)C12 (stereo partly drawn),> 4 mM (inactive)
22,Cc1ccc(CCNc2ccccc2)c[n+]1[O-],> 4 mM (inactive)
23,c1ccc(-c2csc3ncn4nnnc4c23)cc1,> 4 mM (inactive)
24,C[C@@H]1C(=O)OC2[C@H](O)C34[C@@H]5OC(=O)[C@@]3(O[C@@H]3OC(=O)[C@H](O)[C@@]34[C@H](C(C)(C)C)[C@H]5O)[C@]21O (stereo partly drawn),> 4 mM (inactive)

row,Compound,Kd
1,CN(C)C(=O)C12CCC(C)(C(=O)O1)C2(C)C (stereo not drawn),> 4 mM (inactive)
2,O=c1[nH]cnc2nc[nH]c12,> 4 mM (inactive)
3,NCc1ccc2c(c1)OCCCO2,> 4 mM (inactive)
4,NC(Cn1ccc(=O)c(O)c1)C(=O)O (stereo not drawn),> 4 mM (inactive)
5,CC12CCC3C(CC3(C)C)C(C)(CCC1=O)O2 (stereo not drawn),> 4 mM (inactive)
6,CC(=O)Oc1cccc2ccc(=O)[nH]c12,> 4 mM (inactive)
7,CCOCC(=O)N1CCc2ccccc21,> 4 mM (inactive)
8,COc1ccccc1NC(=O)C1CCCCC1,> 4 mM (inactive)
9,CCOC(=O)c1c(C)n([O-])c2ccccc2[n+]1=O,> 4 mM (inactive)
10,Cc1oc(-c2ccccc2)nc1CC(=O)O,> 4 mM (inactive)
11,COCc1nn2c(N)c(C#N)cnc2c1-c1ccccc1,> 4 mM (inactive)
12,CCC(=O)Oc1ccc(N2C(=O)CCC2=O)cc1,> 4 mM (inactive)
13,CNC(=O)c1cc2cccc(OC)c2oc1=O,> 4 mM (inactive)
14,Cc1ccccc1NC(=O)c1ccccc1,> 4 mM (inactive)
15,CCOC(=O)c1csc(N)n1,> 4 mM (inactive)
16,O=C(NCc1ccccc1)c1cnsn1,> 4 mM (inactive)
17,COc1ccc2c(c1)OC/C(=C\c1ccc(OC)c(O)c1)C2=O,> 4 mM (inactive)
18,Cc1ccc(N2CCN(C(=O)c3ccccc3)CC2)c(C)c1,> 4 mM (inactive)
19,CC(=O)Nc1nc2c(s1)C(=O)NCCC2,> 4 mM (inactive)
20,OCc1ccccc1CN1CCOCC1,> 4 mM (inactive)
21,CN1C(=O)/C(=C/c2ccccc2O)NC1=S,> 4 mM (inactive)
22,COc1ccc2c(c1)[nH]c1c(C)nccc12,> 4 mM (inactive)
